Measured values reported in article PMC7531004, “Discovery of gramicidin A analogues with altered activities by multidimensional screening of a one-bead-one-compound library” (Nature Communications, 2020).
Where a SMILES comes first, the peptide text is derived from it. [ ]: non-standard residue; d: D form. The star is where a group is joined. NHCH2CH2OH = OCCN*; For = O=C*

Columns and labels:
[1] = system: P388 mouse leukemia cells; conditions: 92 h
Outline: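 P388 cells at 1 × 10^4 cells/mL (final) were exposed to library peptides (stocks diluted 250-fold in RPMI1640/10% FBS) for 92 h at 37 °C, 5% CO2. Viable cells were counted by WST-1/1-methoxy PMS (4 h), absorbance 415 nm, and expressed as cell viability (%).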

[2] = system: Streptococcus pyogenes SSI-9; assay: Antibacterial activity assay of bead-derived peptides (three concentrations); assay type: cell-based; set-up: key: +++: inhibition by the 640-fold diluted peptide solution; ++: inhibition by the 160-fold diluted solution; +: inhibition by the 40-fold diluted solution; -: no inhibition; conditions: S. pyogenes, bead-derived peptide solution, three concentrations
Outline: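 Undiluted, 4-fold and 16-fold DMSO-diluted peptide stocks; S. pyogenes SSI-9, 2 × 10^5 CFU, cation-adjusted MHB (50 mg/L Ca2+, 25 mg/L Mg2+) + 5% laked horse blood; 37 °C, 18 h; readout = cell pellet visible or not.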

[3] = H+/Na+ transport assay of bead-derived peptides (one-point); assay type: biochemical; set-up: key: relative activity; mean of two control wells = 1.00; conditions: bead-derived peptide solution, EYPC/EYPG LUVs;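 also: relative to parent gramicidin A activity set to 1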
Outline: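 Miniaturized 96-well format. LUVs with entrapped pyranine (1.0 mM) were exposed to peptide for 30 min at RT. Intensities were expressed relative to full lysis by Triton X-100 and no treatment, with control-well mean = 1.00.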

SMILES	cell viability/% [1]	antibacterial activity [2]	H+/Na+ transport activity normalized against the value of 1 (1.00) [3]
CC(C)C[C@@H](NC(=O)[C@H](C)NC(=O)[C@H](NC(=O)[C@H](C)NC(=O)CNC(=O)[C@@H](NC=O)C(C)C)C(C)C)C(=O)N[C@H](C(=O)N[C@H](CC(C)C)C(=O)N[C@@H](Cc1c[nH]c2ccccc12)C(=O)N[C@@H](C(=O)N[C@@H](Cc1c[nH]c2ccccc12)C(=O)N[C@H](CC(C)C)C(=O)N[C@@H](Cc1c[nH]c2ccccc12)C(=O)N[C@H](CC(C)C)C(=O)N[C@@H](Cc1c[nH]c2ccccc12)C(=O)NCCO)C(C)C)C(C)C [compound 11439] (For-VGA[dV]A[dL]V[dL]W[dV]W[dL]W[dL]W-NHCH2CH2OH)	8.1%	-	1.18
CC(C)[C@H](NC=O)C(=O)NCC(=O)N[C@@H](C)C(=O)N[C@@H](C(=O)N[C@@H](C)C(=O)N[C@@H](C(=O)N[C@H](C(=O)N[C@@H](C(=O)N[C@@H](Cc1c[nH]c2ccccc12)C(=O)N[C@@H](C(=O)N[C@@H](Cc1c[nH]c2ccccc12)C(=O)N[C@@H](C(=O)N[C@@H](Cc1c[nH]c2ccccc12)C(=O)N[C@@H](C(=O)N[C@@H](Cc1c[nH]c2ccccc12)C(=O)NCCO)C(C)C)C(C)C)C(C)C)C(C)C)C(C)C)C(C)C)[C@H](C)O [compound 11453] (For-VGA[dT]A[dV]V[dV]W[dV]W[dV]W[dV]W-NHCH2CH2OH)	49.2%	-	1.04
CC(C)C[C@@H](NC(=O)[C@H](C)NC(=O)[C@H](NC(=O)[C@H](C)NC(=O)CNC(=O)[C@@H](NC=O)C(C)C)[C@H](C)O)C(=O)N[C@H](C(=O)N[C@H](CC(C)C)C(=O)N[C@@H](Cc1c[nH]c2ccccc12)C(=O)N[C@@H](C(=O)N[C@@H](Cc1c[nH]c2ccccc12)C(=O)N[C@H](CC(C)C)C(=O)N[C@@H](Cc1c[nH]c2ccccc12)C(=O)N[C@H](CC(C)C)C(=O)N[C@@H](Cc1c[nH]c2ccccc12)C(=O)NCCO)C(C)C)C(C)C [compound 11561] (For-VGA[dT]A[dL]V[dL]W[dV]W[dL]W[dL]W-NHCH2CH2OH)	100.0%	-	1.01
CNC(=O)C[C@@H](NC(=O)[C@@H](NC(=O)[C@@H](CC(C)C)NC(=O)[C@H](C)NC(=O)[C@@H](CC(C)C)NC(=O)[C@H](C)NC(=O)CNC(=O)[C@@H](NC=O)C(C)C)C(C)C)C(=O)N[C@@H](Cc1c[nH]c2ccccc12)C(=O)N[C@@H](C(=O)N[C@@H](Cc1c[nH]c2ccccc12)C(=O)N[C@@H](C(=O)N[C@@H](Cc1c[nH]c2ccccc12)C(=O)N[C@H](CC(C)C)C(=O)N[C@@H](Cc1c[nH]c2ccccc12)C(=O)NCCO)C(C)C)C(C)C [compound 11601] (For-VGA[dL]A[dL]V[dD](NHMe)W[dV]W[dV]W[dL]W-NHCH2CH2OH)	98.9%	-	1.23
CC(C)C[C@@H](NC(=O)[C@H](C)NC(=O)CNC(=O)[C@@H](NC=O)C(C)C)C(=O)N[C@@H](C)C(=O)N[C@H](CC(C)C)C(=O)N[C@H](C(=O)N[C@H](CC(C)C)C(=O)N[C@@H](Cc1c[nH]c2ccccc12)C(=O)N[C@@H](C(=O)N[C@@H](Cc1c[nH]c2ccccc12)C(=O)N[C@@H](C(=O)N[C@@H](Cc1c[nH]c2ccccc12)C(=O)N[C@H](CC(C)C)C(=O)N[C@@H](Cc1c[nH]c2ccccc12)C(=O)NCCO)C(C)C)[C@H](C)O)C(C)C [compound 11660] (For-VGA[dL]A[dL]V[dL]W[dT]W[dV]W[dL]W-NHCH2CH2OH)	100.0%	-	1.09
CC(C)C[C@@H](NC(=O)[C@H](Cc1c[nH]c2ccccc12)NC(=O)[C@@H](CC(C)C)NC(=O)[C@@H](NC(=O)[C@H](NC(=O)[C@H](C)NC(=O)[C@H](NC(=O)[C@H](C)NC(=O)CNC(=O)[C@@H](NC=O)C(C)C)[C@H](C)O)C(C)C)C(C)C)C(=O)N[C@@H](Cc1c[nH]c2ccccc12)C(=O)N[C@@H](C(=O)N[C@@H](Cc1c[nH]c2ccccc12)C(=O)N[C@@H](C(=O)N[C@@H](Cc1c[nH]c2ccccc12)C(=O)NCCO)C(C)C)C(C)C [compound 11772] (For-VGA[dT]A[dV]V[dL]W[dL]W[dV]W[dV]W-NHCH2CH2OH)	100.0%	-	1.04
CNC(=O)C[C@@H](NC(=O)[C@@H](NC(=O)[C@H](NC(=O)[C@H](C)NC(=O)[C@H](NC(=O)[C@H](C)NC(=O)CNC(=O)[C@@H](NC=O)C(C)C)C(C)C)C(C)C)C(C)C)C(=O)N[C@@H](Cc1c[nH]c2ccccc12)C(=O)N[C@H](CC(C)C)C(=O)N[C@@H](Cc1c[nH]c2ccccc12)C(=O)N[C@H](CC(C)C)C(=O)N[C@@H](Cc1c[nH]c2ccccc12)C(=O)N[C@@H](C(=O)N[C@@H](Cc1c[nH]c2ccccc12)C(=O)NCCO)C(C)C [compound 11796] (For-VGA[dV]A[dV]V[dD](NHMe)W[dL]W[dL]W[dV]W-NHCH2CH2OH)	100.0%	-	1.33
CC(C)C[C@@H](NC(=O)[C@H](C)NC(=O)CNC(=O)[C@@H](NC=O)C(C)C)C(=O)N[C@@H](C)C(=O)N[C@H](CC(C)C)C(=O)N[C@H](C(=O)N[C@@H](C(=O)N[C@@H](Cc1c[nH]c2ccccc12)C(=O)N[C@@H](C(=O)N[C@@H](Cc1c[nH]c2ccccc12)C(=O)N[C@@H](C(=O)N[C@@H](Cc1c[nH]c2ccccc12)C(=O)N[C@H](CC(C)C)C(=O)N[C@@H](Cc1c[nH]c2ccccc12)C(=O)NCCO)C(C)C)C(C)C)C(C)C)C(C)C [compound 12040] (For-VGA[dL]A[dL]V[dV]W[dV]W[dV]W[dL]W-NHCH2CH2OH)	100.0%	+	1.07
CC(C)C[C@@H](NC(=O)[C@H](C)NC(=O)CNC(=O)[C@@H](NC=O)C(C)C)C(=O)N[C@@H](C)C(=O)N[C@H](CC(C)C)C(=O)N[C@H](C(=O)N[C@@H](C(=O)N[C@@H](Cc1c[nH]c2ccccc12)C(=O)N[C@@H](C(=O)N[C@@H](Cc1c[nH]c2ccccc12)C(=O)N[C@@H](C(=O)N[C@@H](Cc1c[nH]c2ccccc12)C(=O)N[C@H](CC(C)C)C(=O)N[C@@H](Cc1c[nH]c2ccccc12)C(=O)NCCO)C(C)C)[C@H](C)O)C(C)C)C(C)C [compound 12081] (For-VGA[dL]A[dL]V[dV]W[dT]W[dV]W[dL]W-NHCH2CH2OH)	100.0%	-	1.01
CC(C)C[C@@H](NC(=O)[C@H](C)NC(=O)CNC(=O)[C@@H](NC=O)C(C)C)C(=O)N[C@@H](C)C(=O)N[C@@H](C(=O)N[C@H](C(=O)N[C@@H](C(=O)N[C@@H](Cc1c[nH]c2ccccc12)C(=O)N[C@@H](C(=O)N[C@@H](Cc1c[nH]c2ccccc12)C(=O)N[C@@H](C(=O)N[C@@H](Cc1c[nH]c2ccccc12)C(=O)N[C@@H](C(=O)N[C@@H](Cc1c[nH]c2ccccc12)C(=O)NCCO)C(C)C)C(C)C)C(C)C)C(C)C)C(C)C)C(C)C [compound 12092] (For-VGA[dL]A[dV]V[dV]W[dV]W[dV]W[dV]W-NHCH2CH2OH)	100.0%	+	1.14
CC(C)C[C@@H](NC(=O)[C@H](C)NC(=O)[C@H](NC(=O)[C@H](C)NC(=O)CNC(=O)[C@@H](NC=O)C(C)C)C(C)C)C(=O)N[C@H](C(=O)N[C@@H](C(=O)N[C@@H](Cc1c[nH]c2ccccc12)C(=O)N[C@@H](C(=O)N[C@@H](Cc1c[nH]c2ccccc12)C(=O)N[C@H](CC(C)C)C(=O)N[C@@H](Cc1c[nH]c2ccccc12)C(=O)N[C@H](CC(C)C)C(=O)N[C@@H](Cc1c[nH]c2ccccc12)C(=O)NCCO)C(C)C)C(C)C)C(C)C [compound 12099] (For-VGA[dV]A[dL]V[dV]W[dV]W[dL]W[dL]W-NHCH2CH2OH)	85.4%	+	1.05
CC(C)C[C@@H](NC(=O)[C@H](C)NC(=O)CNC(=O)[C@@H](NC=O)C(C)C)C(=O)N[C@@H](C)C(=O)N[C@@H](C(=O)N[C@H](C(=O)N[C@@H](C(=O)N[C@@H](Cc1c[nH]c2ccccc12)C(=O)N[C@H](CC(C)C)C(=O)N[C@@H](Cc1c[nH]c2ccccc12)C(=O)N[C@@H](C(=O)N[C@@H](Cc1c[nH]c2ccccc12)C(=O)N[C@H](CC(C)C)C(=O)N[C@@H](Cc1c[nH]c2ccccc12)C(=O)NCCO)C(C)C)[C@H](C)O)C(C)C)C(C)C [compound 12185] (For-VGA[dL]A[dV]V[dT]W[dL]W[dV]W[dL]W-NHCH2CH2OH)	98.1%	+	1.02
CC(C)C[C@@H](NC(=O)[C@H](C)NC(=O)[C@H](NC(=O)[C@H](C)NC(=O)CNC(=O)[C@@H](NC=O)C(C)C)C(C)C)C(=O)N[C@H](C(=O)N[C@@H](C(=O)N[C@@H](Cc1c[nH]c2ccccc12)C(=O)N[C@@H](C(=O)N[C@@H](Cc1c[nH]c2ccccc12)C(=O)N[C@@H](C(=O)N[C@@H](Cc1c[nH]c2ccccc12)C(=O)N[C@@H](C(=O)N[C@@H](Cc1c[nH]c2ccccc12)C(=O)NCCO)C(C)C)C(C)C)C(C)C)[C@H](C)O)C(C)C [compound 12283] (For-VGA[dV]A[dL]V[dT]W[dV]W[dV]W[dV]W-NHCH2CH2OH)	100.0%	-	1.08
